Measured values as given in paper doi:10.1101/2024.02.28.577416v1 (biorxiv, 2024).
Changes are numbered by the printed parent chain.

What was measured:
[1] = biological target: T1, SCO4122 (Streptomyces coelicolor, UniProt Q9KYE8); assay: SPR; format: binding
T1 sequence (Q9KYE8 1-182): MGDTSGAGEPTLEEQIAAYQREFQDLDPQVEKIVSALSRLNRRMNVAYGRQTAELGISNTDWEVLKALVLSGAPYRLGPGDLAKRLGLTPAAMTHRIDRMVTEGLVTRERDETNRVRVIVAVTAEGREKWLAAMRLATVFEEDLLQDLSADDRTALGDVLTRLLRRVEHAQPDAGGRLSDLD

[2] = biological target: T2, SCO4122 (Streptomyces coelicolor, UniProt Q9KYE8, M93L); assay: SPR; format: binding
T2 sequence (Q9KYE8 1-182 M93L): T1 sequence (Q9KYE8 1-182) with M93L

With `CC[n+]1c(-c2ccccc2)c2cc(N)ccc2c2ccc(N)cc21` [EtBr] the Kd [1] was 1.39 µM.
Molecule `O=C(N[C@H](CO)[C@H](O)c1ccc([N+](=O)[O-])cc1)C(Cl)Cl` [chloramphenicol] has a Kd [1] of 2000 µM.
In the case of `O=C(O)c1cn(C2CC2)c2cc(N3CCNCC3)c(F)cc2c1=O` [ciprofloxacin], the Kd [1] is reported as 31 µM.
Work on `[H]/N=C(/N)N[C@H]1[C@H](O)[C@@H](O)[C@H](O[C@@H]2O[C@@H](C)[C@](O)(C=O)[C@H]2O[C@@H]2O[C@@H](CO)[C@H](O)[C@@H](O)[C@@H]2NC)[C@@H](N/C(N)=N\[H])[C@@H]1O` [streptomycin] yielded a Kd [1] of 0.73 µM and a Kd [2] of 53.9 µM.
`CN(C)[C@@H]1C(=O)C(C(N)=O)=C(O)[C@@]2(O)C(=O)C3=C(O)c4c(O)cccc4[C@@](C)(O)[C@H]3C[C@@H]12` [tetracycline] gave a Kd [1] of 2.68 µM and a Kd [2] of 2.43 µM.
